According to US20250387437A1, “PHARMACEUTICAL COMPOSITION FOR PREVENTING OR TREATING ALOPECIA INCLUDING AKKERMANSIA” (priority 2022, published 2025):

Key:
[1] = test system: alopecia-induced mice (testosterone); assay: Confirmation of mouse hair growth through photograph; assay type: in vivo; settings: testosterone 0.5 mg/day s.c. alopecia model, male C57BL/6 mice, daily treatment for 5 weeks, FIG. 1
Experimental: The animal experiment was carried out in compliance with the Animal use and Care Protocol of the Institutional Animal Care and Use Committee (IACUC). Seven-week-old male C57BL/6 mice were purchased and acclimated for 1 week, and then bred for 5 weeks. Regarding the breeding environment, the mice were bred at a constant temperature (22° C.) and relative humidity (40% to 60%) with a 12-hr light/12-hr dark cycle. A chow diet was fed to all experimental groups.
In order to make an alopecia model, 0.5 mg/day of testosterone was subcutaneously injected to mice in all experimental groups. A group in which alopecia was induced by testosterone administration was used as a negative control group, and finasteride was orally administered at 0.5 mg/kg/day as a positive control group. In the groups in which live bacteria and killed bacteria of the genus Akkermansia of the present invention are administrated, PBS containing L-cysteine and glycerol was orally administered as a vehicle.
For the mice in each experimental group, the degree of hair growth was observed through photographing hair. […] From the left side, there are the results of the negative control group (Testosterone), the positive control group (T+Finasteride), the Akkermansia muciniphila live bacteria-administered group (T+EB-AMDK19), and the Akkermansia muciniphila killed bacteria-administered group (T+EB-AMDK19 HI). […]

[2] = test system: alopecia-induced mice (testosterone); assay: Hair growth length increase effect; assay type: in vivo, C57BL/6 mice; settings: after the 5-week experiment, average per group, FIGS. 2a-b
Experimental: The animal experiment was carried out in compliance with the Animal use and Care Protocol of the Institutional Animal Care and Use Committee (IACUC). Seven-week-old male C57BL/6 mice were purchased and acclimated for 1 week, and then bred for 5 weeks. Regarding the breeding environment, the mice were bred at a constant temperature (22° C.) and relative humidity (40% to 60%) with a 12-hr light/12-hr dark cycle. A chow diet was fed to all experimental groups. […] In order to make an alopecia model, 0.5 mg/day of testosterone was subcutaneously injected to mice in all experimental groups. A group in which alopecia was induced by testosterone administration was used as a negative control group, and finasteride was orally administered at 0.5 mg/kg/day as a positive control group. In the groups in which live bacteria and killed bacteria of the genus Akkermansia of the present invention are administrated, PBS containing L-cysteine and glycerol was orally administered as a vehicle. [table] After the 5-week experiment was completed, the hair length was measured for individuals in each experimental group to calculate an average value, and the results of the hair growth length increase effect experiment are shown as a graph in FIG. 2.

[3] = test system: hair follicles of alopecia-induced C57BL/6 mice; assay: Histological change in mouse hair follicles (hematoxylin-eosin staining); assay type: in vivo; settings: skin tissue collected at week 5, H&E, optical microscope, FIGS. 5a-b
Experimental: The animal experiment was carried out in compliance with the Animal use and Care Protocol of the Institutional Animal Care and Use Committee (IACUC). Seven-week-old male C57BL/6 mice were purchased and acclimated for 1 week, and then bred for 5 weeks. Regarding the breeding environment, the mice were bred at a constant temperature (22° C.) and relative humidity (40% to 60%) with a 12-hr light/12-hr dark cycle. A chow diet was fed to all experimental groups. […] In order to make an alopecia model, 0.5 mg/day of testosterone was subcutaneously injected to mice in all experimental groups. A group in which alopecia was induced by testosterone administration was used as a negative control group, and finasteride was orally administered at 0.5 mg/kg/day as a positive control group. In the groups in which live bacteria and killed bacteria of the genus Akkermansia of the present invention are administrated, PBS containing L-cysteine and glycerol was orally administered as a vehicle. [table] In order to confirm the morphological change of male C57BL/6 mouse hair follicles, skin tissues collected at week 5 after […] administration were stained with hematoxylin-eosin and observed with an optical microscope to confirm the number of hair follicles, and the results are shown in FIGS. 5a and 5b.

`CC(C)(C)NC(=O)[C@H]1CC[C@H]2[C@@H]3CC[C@H]4NC(=O)C=C[C@]4(C)[C@H]3CC[C@]12C` [finasteride] was tested, and the “hair growth / regrowth in hair loss regions (photograph)” value [1] was “almost all regions thereof were changed to black at week 5”, the “skin color change in hair loss regions of the back (photograph)” value [1] was “skin color was darkened from week 3 of treatment” and the “hair length, comparison between treated groups” value [2] was “showed similar patterns”. For the same compound, the “number of telogen hair follicles compared to the negative control group” value [3] was “increased”.
